How the values were obtained:
Assay type in all cases: in vivo
[1] = system: Phakopsora pachyrhizi; assay: Test A: preventive spray on soybean seedlings, Asian soybean rust, visual disease rating; settings: 250 ppm, 100 = 100% disease control, 0 = no control
[2] = system: Plasmopara viticola; assay: Test B: preventive spray on grape seedlings, grape downy mildew, disease rating
Description: General protocol for preparing test solutions for Tests AG: the test compounds were first dissolved in acetone in an amount equal to 3% of the final volume and then suspended at the desired concentration (in ppm) in acetone and purified water (50/50 mix by volume) containing the surfactant PEG400 (polyhydric alcohol esters). The resulting test suspensions were then used in Tests AG. Compounds were sprayed at a concentration of 250 ppm or other indicated rate to the point of run-off on the test plants. The test solution was sprayed to the point of run-off on grape seedlings. […] A dash (-) indicates no test results.

[3] = system: Botrytis cinerea; assay: Test C: preventive spray on tomato seedlings, gray mold, visual disease rating; settings: for pest or weed control at 250 ppm: Botrytis cinerea
Outline: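 Compounds predissolved in acetone (3% of final volume), then suspended in 50/50 acetone/water with PEG400 surfactant. Sprayed preventively at 250 ppm or other indicated rate to run-off on tomato seedlings before Botrytis challenge; disease rated visually.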

[4] = system: Phytophthora infestans; assay: whole plant or invertebrate; settings: for Test D disease control rating: tomato seedlings; for pest or weed control at 250 ppm: Phytophthora infestans, in Solanum lycopersicum, read-out: Test D disease control rating
[5] = system: Puccinia recondita f. sp. tritici; assay: Test F: preventive spray on wheat seedlings, wheat leaf rust, visual disease rating; settings: for pest or weed control at 250 ppm: Puccinia recondita
Outline: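 Compounds were dissolved in acetone/water (50/50) with PEG400 surfactant and sprayed to run-off on wheat seedlings, at 250 ppm unless another rate is indicated. The next day, seedlings were inoculated with a Puccinia recondita f. sp. tritici spore suspension; disease was rated visually.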

[6] = system: Erysiphe graminis f. sp. tritici; assay: Test G: preventive spray on wheat seedlings, wheat powdery mildew, visual disease rating; settings: for pest or weed control at 250 ppm: Blumeria graminis, 192 h
Outline: (§1)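 Preventive foliar spray of wheat seedlings to run-off, at 250 ppm or other indicated rate. Compounds dissolved in acetone (3% of final volume), suspended in 50/50 acetone–water with PEG400 surfactant. Disease rated visually.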

[7] = system: Zymoseptoria tritici; assay: Test E: preventive spray on wheat seedlings, wheat leaf blotch, visual disease rating; settings: for pest or weed control at 250 ppm: Zymoseptoria tritici
Outline: as §1

[8] = 250 ppm, 100 = 100% disease control, 0 = no control

Compound	Test A disease control rating [1] [%]	Test B disease control rating [2, 8] [%]	Test C disease control rating [3, 8] [%]	Test D disease control rating [4, 8] [%]	Test F disease control rating [5, 8] [%]	Test G disease control rating [6, 8] [%]	Test E disease control rating [7, 8] [%]	other results
Cn1ncc(O)c(C(=O)Nc2ccc(S(=O)(=O)C(F)(F)F)cc2)c1=O [Compound 129]	0	98	0	82	89	81	–	–
Cn1ncc(O)c(C(=O)Nc2ccc(F)cc2F)c1=O [Compound 144]	0	100	0	99	99	87	–	–
Cn1ncc(O)c(C(=O)Nc2cccc(Oc3ccccc3)c2)c1=O [Compound 151]	0	83	0	0	85	13	–	–
Cc1ccc(NC(=O)c2c(O)cnn(C)c2=O)cc1 [Compound 93]	–	94	15	93	91	87	65	–
Cn1ncc(O)c(C(=O)NC2CCCCC2)c1=O [Compound 39]	–	70	0	0	0	69	0	–
Cn1ncc(O)c(C(=O)Nc2ccc(Cl)cc2Cl)c1=O [Compound 37]	–	86	0	95	94	76	51	–
O=C(Nc1ccc(OC(F)(F)F)cc1)c1c(O)cnn(C2CC2)c1=O [Compound 120]	13	98	0	97	96	89	–	–
N-(4-Bromophenyl)-2,3-dihydro-5-hydroxy-2-methyl-3-oxo-4-pyridazinecarboxamide [Compound 75]	–	86	0	93	98	13	83	–
Cn1ncc(O)c(C(=O)Nc2ccc(C(F)(F)C(F)(F)F)cc2)c1=O [Compound 138]	–	100	0	99	100	99	99	–
Cn1ncc(O)c(C(=O)Nc2ccc(C(F)(F)F)cc2)c1=O [Compound 2, 2,3-Dihydro-5-hydroxy-2-methyl-3-oxo-N-[4-(trifluoromethyl)phenyl]-4-pyridazinecarboxamide]	–	97	–	–	–	–	–	pest or weed control at 250 ppm [3, 8]: 0%; pest or weed control at 250 ppm [4]: 99%; pest or weed control at 250 ppm [7, 8]: 97%; pest or weed control at 250 ppm [5, 8]: 100%; pest or weed control at 250 ppm [6, 8]: 97%
Cn1ncc(O)c(C(=O)Nc2ncc(Cl)cn2)c1=O [Compound 38]	–	20	0	0	68	0	0	–
Cn1ncc(O)c(C(=O)Nc2c(Cl)cccc2Cl)c1=O [Compound 141]	50	96	0	–	68	64	–	–
CC(C)n1ncc(O)c(C(=O)Nc2ccc(OC(F)(F)F)cc2)c1=O [Compound 131]	–	98	0	99	91	100	51	–
COC(=O)N(C(=O)c1c(OC(C)=O)cnn(C)c1=O)c1ccc(OC(F)(F)F)cc1 [Compound 88]	–	–	–	–	–	–	–	Test B disease control rating ([2]; 50 ppm): 91%; Test C disease control rating ([3]; 50 ppm): 0%; Test D disease control rating ([4]; 50 ppm): 57%; Test E disease control rating ([7]; 50 ppm): 32%; Test F disease control rating ([5]; 50 ppm): 83%; Test G disease control rating ([6]; 50 ppm): 89%
Cc1cc(C(F)(F)F)ccc1NC(=O)c1c(O)cnn(C)c1=O [Compound 117]	0	100	0	97	99	90	–	–
Cn1ncc(O)c(C(=O)Nc2ccc(OC(F)(F)F)cc2)c1=O [Compound 21, 2,3-Dihydro-5-hydroxy-2-methyl-3-oxo-N-[4-(trifluoromethoxy)phenyl]-4-pyridazinecarboxamide]	–	93	–	–	–	–	–	pest or weed control at 250 ppm [3, 8]: 0%; pest or weed control at 250 ppm [4]: 97%; pest or weed control at 250 ppm [7, 8]: 98%; pest or weed control at 250 ppm [5, 8]: 99%; pest or weed control at 250 ppm [6, 8]: 98%
Cn1ncc(O)c(C(=O)Nc2ncccc2Cl)c1=O [Compound 45]	–	88	99	94	98	0	0	–
Cc1nnc(NC(=O)c2c(O)cnn(C)c2=O)s1 [Compound 13]	–	65	0	0	0	0	0	–
CC(=O)Oc1cnn(C)c(=O)c1C(=O)N(C(C)=O)c1ccc(OC(F)(F)F)cc1 [Compound 84]	–	–	–	–	–	–	–	Test B disease control rating ([2]; 280 ppm): 99%; Test C disease control rating ([3]; 280 ppm): 0%; Test D disease control rating ([4]; 280 ppm): 100%; Test E disease control rating ([7]; 280 ppm): 100%; Test F disease control rating ([5]; 280 ppm): 100%; Test G disease control rating ([6]; 280 ppm): 99%
O=C(Nc1ccc(OC(F)(F)F)cc1)c1c(O)cn[nH]c1=O [Compound 136]	0	100	0	91	93	0	–	–
Cn1ncc(O)c(C(=O)Nc2ccc(Cl)nc2)c1=O [Compound 6]	–	85	99	88	99	0	57	–

— US20190133128A1, “Fungicidal pyridazinones” (FMC Corporation, priority 2017, published 2019)
